Assays:
[1] = Fluorescence of hydrocyanines before and after reaction with superoxide (KO2); type: physicochemical; details: for λem: emission wavelength of the corresponding oxidized product; for λex: excitation wavelength of the corresponding oxidized product; for Fold Increase in Intensity: oxidized versus reduced dye, 7.5 μM in 1 mL methanol, oxidized with 20 μL DMSO containing 20 mM KO2
Description: Superoxide (O2^−) was created by the enzymatic reaction of XA/XO (10 lm/10 mU) at 25° C. for 5 min (XA=[…]). XA/XO (10 lm/10 mU) was added to buffered solutions of Hydro-Cy3 ([…]) maintained in a 37° C. water bath. The fluorescence emission of each reaction mixture was measured at 5-min intervals against a reagent blank using a fluorescence spectrometer. In some cases solid KO2 (1 mg) or KO2 dissolved in DMSO was added to a Hydro-IR-786 solution in methanol or DMSO and the emission spectra was recorded. Alternatively, hydro-IR-786 (2 mg) was dissolved in 1 mL of ethanol and 50 μL of […] KO2 solution (7 mg KO2 was dissolved in 10 mL dimethylsulfoxide) was added and stirred for 15 min before recording the emission spectra.

[2] = test system: live, explanted mouse aortas; test: Detection of ROS in live, explanted mouse aortas after LPS stimulation; design: species or system C57B1/6 mice; details: for detection of ROS in tissue explants (LPS versus PBS): confocal fluorescent imaging
Description: The ability of hydrocyanines to detect ROS from live, explanted mouse aortas, after lipopolysaccharide endotoxin (LPS) stimulation to produce ROS, was evaluated. The detection of ROS in live tissue can provide information about ROS production in a physiological environment that closely resembles in vivo conditions. C57B1/6 mice were treated with either 16 mg/kg lipopolysaccharide endotoxin (LPS) or PBS for 16 hours and then euthanized. The aortas of the mice were isolated and incubated with either Hydro-Cy3 or Hydro-Cy3+TEMPOL for 15 minutes. Sections of the aorta were made, fixed with 10% formalin, and mounted en face.
For example, the fluorescence intensity of the LPS-treated slide was 183.2 RFU/S compared to 46.9 RFU/S in the PBS-treated mice. Application of TEMPOL (small molecule cell-permeable superoxide dismutase mimetic1, which attenuates superoxide anion and peroxynitrite-induced inflammation) to mouse aortas, treated with LPS, reduced the fluorescence to control levels.

[3] = test system: rat aortic smooth muscle (RASM) cells; test: Detection of ROS in RASM cells during Ang II mediated cell signaling; type: cell-based; details: for background fluorescence / detection of intracellular ROS after Ang II stimulation: 10 minutes; for detection of intracellular ROS after Ang II stimulation: fluorescent microscopy
Description: The ability of hydrocyanines to detect ROS in rat aortic muscle (RASM) cells during angiotensin (Ang) II mediated cell signaling was evaluated using fluorescence spectroscopy. Ang II-mediated ROS production in aortic smooth muscle cells has been implicated in the development of atherosclerosis and hypertension.
[…] […] It is evident from fluorescence measurements that hydro-Cy3 is sensitive enough to detect even the ROS production by normal cells, causing relatively higher background fluorescence. On the other hand, because of the tuned reaction rate, deutero-Cy3 can only detect the overproduction of ROS during Ang-II mediated ROS over-production.
The ability of D-DHE to detect ROS in rat aortic muscle (RASM) cells during angiotensin (Ang) II mediated cell signaling was evaluated using fluorescence spectroscopy. A comparative cell-culture study between DHE and D-DHE was conducted to evaluate the ability of DHE and D-DHE to detect ROS production in rat aortic smooth muscle (RASM) cells, during angiotensin (Ang) II mediated cell signaling.
[…] […] Stimulation of RASMs with Ang II was not detected with DHE due to the high level background fluorescence.

carotid arteries = test: DHE staining of carotid artery sections after carotid ligation; design: species or system Mice; details: 10 μmol/L in PBS, 30 minutes at 37° C.; 14 days after ligation
Description: Mice were anesthetized with ketamine/xylazine and their left carotid arteries were exposed and tied with a 6-0 silk suture 1 cm below the bifurcation as described in the literature. The control was sham operated mice. The mice were sacrificed 14 days after ligation and their carotid arteries were isolated and frozen, enzymatically-intact, and 30 μm-thick sections of sham operated and injured carotid arteries were made. The frozen sections were incuvated with DHE (10 μmol/L) in PBS for 30 minutes at 37° C. in a humidified chamber protected form light. DHE is oxidized on reaction with superoxide to ethidium bromide, which binds to DNA in the nucleus and fluoresces red. The DHE stained slides were imaged on a confocal microscope. The ethidium bromide fluorescence was detected using a 543 nm He—Ne laser for excitation and a 560 nm long pass filter for emission. The autofluorescence of the elastic laminae was detected using a 488 nm Ar laser for excitation combined with a 500-550 nm band pass filter for emission.

[4] = Stability of reduced dyes to autooxidation; details: for half-life: buffer, pH 7.4
Description: A solution of hydrocyanine in PBS buffer (pH 7.4) was placed in an Eppendorf tube and placed in a 37° C. water bath. Stability was measured by monitoring the formation of the oxidation product using fluorescence spectroscopy over a 24 hour period. The excitation and emission wavelengths for DHE were 515 and 590 nm.
The stability of deuterocyanines was evaluated in the same manner.

[5] = Specificity to various reactive oxygen species; details: 50 μM probe in PBS with 1% methanol; equimolar ROS; 5 minutes at 25° C.; FIG. 5
Description: A 50 μm Hydro-Cy7 solution was prepared in phosphate buffered saline (PBS) containing 1% methanol. Various reactive oxygen species were added to the 50 μm Hydro-Cy7 solution, at an equimolar ratio to Hydro-Cy7, and the fluorescence intensity was recorded after incubating 5 minutes at 25° C. Superoxide (O2^−) was added as solid KO2. Stock solutions of hydrogen peroxide, t-butyl hydrogen peroxide (TBHP), hypochlorite, 3-morpholinosydnonimine (SIN-1), glutathione (GSH), and 1,4-hydroquinone were prepared and added to the Hydro-Cy7 solution to generate a final concentration of 50 μM. 3-(aminopropyl)-1-hydroxy-3-isopropyl-2-oxo-1-triazene (NOC-5, 1 mM) was prepared as a 10 mM sodium hydroxide solution and added to the Hydro-Cy7 solution to generate a final concentration of 50 μM. The hydroxide and butoxy radicals were generated in situ by reacting hydrogen peroxide and t-butylperoxide with Fe^2+. A 50 μM Hydro-Cy7 solution, in PBS, containing 500 μM Fe^2+ was prepared and either hydrogen peroxide or t-butyl hydrogen peroxide was added to this solution to generate a final concentration of 50 μM.

[6] = test system: ROS production generated by activated macrophages and neutrophils; test: In vivo imaging of ROS in LPS model of acute inflammation; design: species or system C57B1/6 mice; details: 5 nanomoles i.p., 6 hours after LPS (1 mg i.p.); abdominal area; FIG. 7
Description: The ability of hydrocyanines to image ROS production, in vivo, generated by activated macrophages and neutrophils, in an LPS model of acute inflammation was evaluated. Nine C57B1/6 mice were divided into three groups: Group I was given an intraperitoneal (i.p.) injection of LPS (1 mg in 400 μL saline); Group II was given saline (400 μL); and Group III was untreated. After 6 hours, the mice were anaesthetized, their abdominal fur was removed, and the LPS and saline treated mice were injected i.p. with Hydro-Cy7 (5 nanomoles in 50 μL methanol). The mice were images as triplets, one from each group, using a Kodak FX in vivo images with a 700 nm excitation laser and a 790 nm emission filter. […] The mean fluorescent intensity, from the abdominal area, from the three sets of mice was also quantified using Image-Pro software. LPS-treated mice had approximately two-fold higher fluorescence intensity than the saline group.

RASM cells = test: Trypan blue cell viability assay; type: cell-based, rat; details: experimental conditions of RASM assay and higher concentrations (1 mM)
[7] = Sensitivity to hydroxide radical generated from H2O2 and Fe2+
Description: Hydroxide radicals were generated in situ by reacting hydrogen peroxide with Fe^2+. Various quantities of hydrogen peroxide (H2O2) stock solutions were added to a solution of hydrocyanine in methanol to generate hydrogen peroxide concentrations from about 2 to about 30 nM. Aqueous Fe^2+(1 μM) was added to the reduced dye/H2O2 solution to generate a 200 nM concentration. The resulting solution was kept at ambient temperature for 5 minutes and the fluorescence intensity was measured (λex/λem) against a reagent blank (control solution containing only reagent) simultaneously.
This measurement was carried out using 100 μM of Hydro-ICG at 25° C. The hydroxide radical was generated using the procedure described above.

[8] = Sensitivity of DHE and D-DHE to Fenton's reagent in PBS; details: 50 μM probe in PBS; FIG. 4
Description: The sensitivity of deuterohydroethydium (D-DHE or DDE) was evaluated in the same manner. A 50 μM solution of DHE or D-DHE (DDE) in PBS buffer was treated with Fenton's reagent (using 1-60 nM H2O2 with Fe^2+) and the fluorescence of the oxidized product was measured.

Row | Structure (SMILES) | λem [1] | λex [1] | half-life [4] | detection of ROS in tissue explants (LPS versus PBS) [2] | background fluorescence ([3]; probe 10 μM) | detection of intracellular ROS after Ang II stimulation ([3]; probe 10 μM) | detection of ROS (fluorescence) in cells incubated with Ang II ([3]; probe 100 μM) | Fold Increase in Intensity [1] | also measured
1 | CCN1c2cc(N)ccc2-c2ccc(N)cc2C1c1ccccc1 (centres unmarked) [DHE, dihydroethydium, reference compound] | 590 nm | 515 nm | 0.5 h | failed to detect ROS | large amount of background fluorescence | not detected | failed to detect ROS | – | ROS detection in ligated versus sham carotid artery sections (carotid arteries): increased red fluorescence compared to the sham mice
2 | [2H]C1(c2ccccc2)c2cc(N)ccc2-c2ccc(N)cc2N1CC [D-DHE, deuterohydroethydium] | – | – | – | – | very low levels of background fluorescence | significant increase in fluorescence | – | – | concentration range in which ROS is accurately measured [8]: 5 to 60 nM; change in fluorescence on application of TEMPOL ([3]; cells treated with probe (10 μM) and Ang II): dramatic decrease in fluorescence; detection of intracellular ROS after Ang II stimulation ([3]; probe 10 μM, listed as DDE): significantly better than DHE; increase in stability versus DHE [4]: 4-6 fold

Further lines, with some results ahead:

Row | λem [1] | λex [1] | half-life [4] | Structure (SMILES) | detection of ROS in tissue explants (LPS versus PBS) [2] | background fluorescence ([3]; probe 10 μM) | detection of intracellular ROS after Ang II stimulation ([3]; probe 10 μM) | detection of ROS (fluorescence) in cells incubated with Ang II ([3]; probe 100 μM) | Fold Increase in Intensity [1] | also measured
3 | 760 nm | 735 nm | ~72 h | CCN1/C(=C/C=C/C=C/C=C/C2N(CC)c3ccccc3C2(C)C)C(C)(C)c2ccccc21 (centres unmarked) [Hydro-Cy7] | – | – | – | – | 104 fold | ROS specificity [5]: specificity for superoxide and hydroxyl radical; fluorescence intensity of LPS-treated mice relative to saline group [6]: approximately two-fold
4 | 560 nm | 535 nm | ~72 h | CCN1/C(=C/C=C/C2N(CC)c3ccccc3C2(C)C)C(C)(C)c2ccccc21 (centres unmarked) [Hydro-Cy3] | significantly higher fluorescence intensity | – | – | intense intracellular fluorescence | 118 fold | integrated total fluorescence intensity ([2]; aortas of LPS-treated mice (16 mg/kg, 16 hours), probe 15 minutes): 183.2 RFU/S; integrated total fluorescence intensity ([2]; aortas of LPS-treated mice, probe + TEMPOL): 34.9 RFU/S; integrated total fluorescence intensity ([2]; aortas of PBS-treated mice): 46.9 RFU/S; cellular toxicity (RASM cells): no cellular toxicity; concentration range of linear concentration curve against hydroxide radical [7]: 5 to 50 nM; detected concentration of hydroxide radical [7]: 5 nM; change in fluorescence on application of TEMPOL ([3]; cells treated with probe (100 μM) and Ang II): dramatic decrease in fluorescence; background fluorescence ([3]; probe 50 μM): relatively higher amounts of background fluorescence; fluorescence of cells incubated with probe alone ([3]; probe 100 μM, no Ang II): significantly less fluorescence
5 | 693 nm | 675 nm | – | CN1/C(=C/C=C/C=C/C2N(C)c3ccc4ccccc4c3C2(C)C)C(C)(C)c2c1ccc1ccccc21 (centres unmarked) [Hydro-IR-676] | – | – | – | – | 100 fold | –

From patent US8628753B2, “Reduced dye probes for the detection of radical oxygen species” (Emory University, priority 2008, dated 2014)
